Experimental data: US20120028995A1, “NOVEL COMPOUNDS FOR MEDICAL USE AS PEPTIDASE EFFECTORS” (IMTM GMBH, priority 2010, published 2012)
Like-named read-outs stand apart in the source and are kept apart here.

What was measured:
T lymphocytes (T cells) = test: Suppression of DNA synthesis of PHA-stimulated T lymphocytes; assay type: cell-based; conditions: tritium thymidine incorporation, read-out: Supp. DNA Synt. T-cell IC50
Protocol: Peripheral blood mononuclear cells (PBMC) from healthy human volunteers were freshly isolated by density gradient centrifugation. T lymphocytes (T cells) were isolated from PBMC fractions via nylon wool adherence. Both cell populations were cultured in serum free lymphocyte medium (AIMV medium, Invitrogen) and stimulated by addition of 1 μg/ml Phytohemagglutinine for 48 hours in 96 well flat-bottom microtiter plates. Test compounds were added at concentration ranges from 0.1 up to 250 μM over the total assay period.
DNA synthesis of proliferating PBMC was assessed by incorporation of nucleotide analogue bromdesoxyuridine (BrdU) and subsequent detection of BrdU by ELISA technique (Cell Proliferation Biotrak™ ELISA system, GE Health Care) according to the protocol of the manufacturer. DNA synthesis of proliferating T cells was determined by incorporation of radio labelled tritium thymidine and subsequent radio detection.
Data output was based on raw data and calculation of relative proliferation response in relation to PHA-activated T cells in the absence of test compound (100% control). The IC50 value of proliferation suppression was assessed by graphical evaluation.

SZ95 cells = test: Inhibition of DNA synthesis and proliferation of immortalized human sebocytes SZ95; assay type: cell-based; conditions: EGF-stimulated SZ95 sebocytes, tritium thymidine incorporation, read-out: Supp. DNA Synt. SZ95 IC50
Protocol: The immortalized human sebocyte line SZ95 was provided by Prof. C Zouboulis [C C Zouboulis, H Seltmann, H Neitzel, C E Orfanos, Establishment and characterization of an immortalized human sebaceous gland cell line (SZ95). J. Invest. Dermatol. 113(6):1011-1020 (1999), the entire disclosure of which is incorporated by reference herein]. These adherent growing cells were cultured in serum-free Sebomed Complete (Biochrom). Recombinant EGF was added in order to stimulate DNA synthesis and proliferation of the SZ95 cells. Test items were added in concentrations from 0.1 up to 100 μM.
The DNA synthesis of proliferating cells was detected by incorporation of radiolabelled tritium thymidine (3HT) and counting at a beta counter. Based on these raw data the relative proliferation response in relation to cells cultured in the absence of test compound (100% control) was calculated. IC50 values of proliferation suppression were assessed by computer-assisted graphical evaluation.

[1] = target: T1, aminopeptidase N (APN), purified recombinant human enzyme (Homo sapiens, UniProt P15144); test: Inhibition of enzymatic activity of aminopeptidase N (fluorogenic substrate hydrolysis); assay type: biochemical; conditions: highest test item concentration 25 μM; for IC50: read-out: meas. IC50 (APN)
T1 construct: made in house; host or cells: ECV cells (transfected)
T1 sequence (P15144 whole entry): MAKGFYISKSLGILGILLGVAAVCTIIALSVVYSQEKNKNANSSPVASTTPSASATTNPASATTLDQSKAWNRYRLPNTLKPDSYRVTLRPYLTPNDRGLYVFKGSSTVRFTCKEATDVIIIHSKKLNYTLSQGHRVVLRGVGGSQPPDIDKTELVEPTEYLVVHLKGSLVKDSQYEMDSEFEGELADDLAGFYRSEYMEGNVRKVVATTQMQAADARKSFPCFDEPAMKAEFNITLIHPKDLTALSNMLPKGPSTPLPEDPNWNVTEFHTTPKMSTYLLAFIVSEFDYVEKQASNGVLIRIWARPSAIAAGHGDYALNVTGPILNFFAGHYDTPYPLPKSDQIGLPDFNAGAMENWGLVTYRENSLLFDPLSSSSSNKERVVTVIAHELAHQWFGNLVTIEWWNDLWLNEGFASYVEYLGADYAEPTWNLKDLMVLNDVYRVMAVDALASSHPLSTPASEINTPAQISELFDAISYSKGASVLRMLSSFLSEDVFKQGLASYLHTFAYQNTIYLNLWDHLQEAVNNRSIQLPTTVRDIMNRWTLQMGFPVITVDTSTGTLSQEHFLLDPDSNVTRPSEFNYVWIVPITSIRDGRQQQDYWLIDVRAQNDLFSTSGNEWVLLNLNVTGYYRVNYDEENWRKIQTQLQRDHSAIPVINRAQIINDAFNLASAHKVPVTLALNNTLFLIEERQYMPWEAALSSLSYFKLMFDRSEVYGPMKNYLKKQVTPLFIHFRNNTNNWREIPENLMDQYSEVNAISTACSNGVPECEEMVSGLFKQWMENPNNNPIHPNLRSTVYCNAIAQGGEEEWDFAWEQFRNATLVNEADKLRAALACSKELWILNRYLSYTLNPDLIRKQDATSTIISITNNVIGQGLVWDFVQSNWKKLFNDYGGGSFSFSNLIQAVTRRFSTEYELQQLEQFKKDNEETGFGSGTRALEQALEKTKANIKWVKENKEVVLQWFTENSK
Protocol: The inhibition of the enzymatic activity of aminopeptidase N (APN) was measured by using purified, recombinant human enzyme (purified from transfected ECV cells, final enzyme concentration approx. 1 nM). […] The assay was performed in 0.05M TRIS/HCl puffer pH 7.5, supplemented with 0.05% Triton (v/v), 0.05% BSA (w/v), 2 mM MgCl2.
The aminopeptidase acitivities wer assessed by the hydrolysis of the fluorogenic substrates H-Ala-4-amino-7-methyl coumarine (abbreviation of fluorogenic group AMC; purchased from Bachem) or (Ala-)2-Rhodamine 110 (abbreviation R110). The final substrate concentrations were again 50 and 1 μM, respectively.
(§1) The assay was performed in white microtitre plates for fluorescence measurements. The test items, substrate and enzyme were diluted in assay buffer. The highest test item concentration used was 25 μM. For the calculation of IC50 values, at least 16 log 2-dilutions of each test item were analyzed. As controls, the DPIV activity in the absence of test items as well as the spontaneous hydrolysis of the substrate was determined.
The release of the fluorescent hydrolysis products AMC and R110 was measured as described above for DPIV substrates.

[2] = tested on: purified, recombinant DP8 and DP9; test: Inhibition of enzymatic activity of DP8/9; assay type: biochemical; conditions: highest test item concentration 25 μM; for IC50: read-out: meas. IC50 (DP8/9)
Protocol: (§2) The inhibition of the enzymatic activity of DPIV and related enzymes was measured by using purified, recombinant human DPIV (purified from transfected Sf9 cells, final enzyme concentration approx. 1 nM) as well as purified, recombinant DP8 and DP9 (purchased from Biomol). The assay was performed in 0.05M TRIS/HCl puffer pH 7.5, supplemented with 0.05% Triton (v/v), 0.05% BSA (w/v), 2 mM MgCl2.
(§3) The enzymatic activity of DPIV was assessed by the hydrolysis of the fluorogenic substrates H-Gly-Pro-4-amino-7-methyl coumarine (abbreviation of fluorogenic group AMC; purchased from Bachem) or (Ala-Pro)2-Rhodamine 110 (abbreviation R110). The final substrate concentrations were 50 μM or 1 μM, respectively.
as §1
(§4) The release of the fluorescent hydrolysis product AMC was measured at an excitation wavelength of 380 nm and an emission wavelength of 460 nm by using a microtitre fluorescence reader immediately after substrate addition as well as after 30, 60 and 120 min. The hydrolysis of the substrate (Ala-Pro)2-Rhodamine 110 was determined at an exitation wavelength of 488 nm and emission wavelength of 530 nm.

[3] = target: T2, purified, recombinant human DPIV (Homo sapiens, UniProt P27487); test: Inhibition of enzymatic activity of DPIV (fluorogenic substrate hydrolysis); assay type: biochemical; conditions: highest test item concentration 25 μM; for IC50: read-out: meas. IC50 (DPIV)
T2 construct: made in house; host or cells: Sf9 insect cells
T2 sequence (P27487 whole entry): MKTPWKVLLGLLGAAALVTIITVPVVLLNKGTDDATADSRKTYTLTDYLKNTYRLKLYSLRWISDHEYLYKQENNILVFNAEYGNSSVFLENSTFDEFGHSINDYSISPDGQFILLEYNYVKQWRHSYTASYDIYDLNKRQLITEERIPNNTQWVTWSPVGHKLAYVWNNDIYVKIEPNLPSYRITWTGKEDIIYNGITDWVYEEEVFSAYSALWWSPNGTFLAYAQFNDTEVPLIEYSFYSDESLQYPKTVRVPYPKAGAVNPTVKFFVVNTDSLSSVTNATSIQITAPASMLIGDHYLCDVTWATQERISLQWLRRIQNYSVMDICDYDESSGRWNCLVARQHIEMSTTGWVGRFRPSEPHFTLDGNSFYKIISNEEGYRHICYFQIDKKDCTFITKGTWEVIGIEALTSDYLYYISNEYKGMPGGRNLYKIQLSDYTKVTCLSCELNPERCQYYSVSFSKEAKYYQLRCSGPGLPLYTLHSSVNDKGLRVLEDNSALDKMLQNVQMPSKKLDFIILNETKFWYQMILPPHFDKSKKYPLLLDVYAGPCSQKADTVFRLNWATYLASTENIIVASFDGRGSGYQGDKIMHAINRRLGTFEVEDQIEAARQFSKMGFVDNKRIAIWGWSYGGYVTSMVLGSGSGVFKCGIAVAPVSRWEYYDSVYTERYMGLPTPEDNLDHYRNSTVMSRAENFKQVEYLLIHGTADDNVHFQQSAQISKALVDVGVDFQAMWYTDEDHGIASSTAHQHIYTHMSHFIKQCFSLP
Protocol: as §2, §3, §1, §4

NHEK cells = test: Inhibition of DNA synthesis and proliferation of normal human epidermal keratinocytes (NHEK); assay type: cell-based; conditions: EGF-stimulated NHEK, BrdU incorporation, read-out: Supp. DNA Synt. NHEK IC50
Protocol: NHEK cells (primary cells from person) were purchased from PromoCell. For these assay the adherent cells were cultured in serum-free Keratinocyte Growth medium 2 supplemented with epidermal growth factor (EGF) and bovine pituitary extract for 48 hours in flat-bottom microtiter plates. EGF stimulates the DNA synthesis and proliferation of these cells. Test items were added in concentrations from 0.1 up to 100 μM.
The DNA synthesis was assessed by incorporation of bromdesoxyuridine (BrdU) and subsequent detection of BrdU by ELISA technique. Based on these raw data the relative proliferation response in relation to cells cultured in the absence of test compound (100% control) was calculated. IC50 values of proliferation suppression were assessed by computer-assisted graphical evaluation.

[4] = target: T3, cytosolic aminopeptidase (cAAP) purified from Jurkat cells (Homo sapiens, UniProt P55786); test: Inhibition of enzymatic activity of cytosolic aminopeptidase (cAAP); assay type: biochemical; conditions: highest test item concentration 25 μM; for IC50: read-out: meas. IC50 (cAAP)
T3 construct: The cytosolic aminopeptidase (cAAP) was purified from Jurkat cells; endogenous in cells; host or cells: Jurkat cells (enzyme purified from them)
T3 sequence (P55786 whole entry): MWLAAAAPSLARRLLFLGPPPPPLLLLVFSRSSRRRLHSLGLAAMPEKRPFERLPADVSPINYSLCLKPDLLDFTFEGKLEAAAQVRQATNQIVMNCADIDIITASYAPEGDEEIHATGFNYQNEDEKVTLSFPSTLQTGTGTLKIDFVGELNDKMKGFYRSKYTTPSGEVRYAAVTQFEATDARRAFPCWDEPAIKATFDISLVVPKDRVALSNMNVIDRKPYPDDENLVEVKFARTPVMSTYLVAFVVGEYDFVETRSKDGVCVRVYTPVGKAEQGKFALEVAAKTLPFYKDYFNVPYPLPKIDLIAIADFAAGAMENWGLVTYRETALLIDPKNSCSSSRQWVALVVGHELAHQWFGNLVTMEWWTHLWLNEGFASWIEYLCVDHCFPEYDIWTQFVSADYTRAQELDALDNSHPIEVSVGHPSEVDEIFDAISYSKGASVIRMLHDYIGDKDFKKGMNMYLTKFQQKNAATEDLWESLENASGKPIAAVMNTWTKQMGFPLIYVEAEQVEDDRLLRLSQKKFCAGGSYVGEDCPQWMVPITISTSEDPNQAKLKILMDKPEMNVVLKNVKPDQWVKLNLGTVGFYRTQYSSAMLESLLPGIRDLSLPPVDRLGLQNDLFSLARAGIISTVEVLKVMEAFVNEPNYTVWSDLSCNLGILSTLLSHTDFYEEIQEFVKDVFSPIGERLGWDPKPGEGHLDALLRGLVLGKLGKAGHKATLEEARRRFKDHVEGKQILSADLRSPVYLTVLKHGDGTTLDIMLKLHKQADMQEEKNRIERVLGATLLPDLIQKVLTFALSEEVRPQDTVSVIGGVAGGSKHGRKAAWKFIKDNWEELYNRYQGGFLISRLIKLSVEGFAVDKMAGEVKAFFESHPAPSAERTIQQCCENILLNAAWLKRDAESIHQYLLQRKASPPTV

Row | IC50 (T lymphocytes (T cells); Homo sapiens, T-cell, 48 h) [µM] | meas. IC50 (APN) [1] | meas. IC50 (DP8/9) [2] | meas. IC50 (DPIV) [3] | meas. IC50 (cAAP) [4] | IC50 [1] [µM] | IC50 [2] [µM] | IC50 [3] [µM] | IC50 [4] [µM] | SMILES | IC50 (SZ95 cells; Homo sapiens) [µM] | IC50 (NHEK cells; Homo sapiens, NHEK, 48 h) [µM] | IC50 (NHEK cells; 48 hours) [µM] | IC50 (T lymphocytes (T cells); PHA-stimulated human T cells, 48 hours) [µM] | IC50 (SZ95 cells) [µM]
1 | 30.2 |  |  |  |  | 3.79 | 0.34 | 0.032 | 3.5 | NC(CCCCNC(=O)C(S)C(N)Cc1ccccc1)C(=O)N1CCSC1 (stereo not drawn) [Compound C22.003] | 75.2 | 38.9 |  |  | 
2 | 157 |  |  |  |  | 0.62 | 0.054 | 0.07 | 0.13 | NC(CCCCNC(=O)c1cccc(NC(=O)C(O)C(N)Cc2ccccc2)c1)C(=O)N1CCSC1 (stereo not drawn) [Compound C21.003] | ≥ 200 | 62 |  |  | 
3 | 9 | no in- hibition |  |  | no in- hibition |  | 1.4 | 0.17 |  | CC(C)(CNC(=O)CC(N)Cc1cc(F)ccc1F)CNC(=O)C(O)C(COCc1ccccc1)NC(=O)OC(C)(C)C (stereo not drawn) [Compound C19.028] | 49.4 | 31.4 |  |  | 
4 | 15.7 | no in- hibition | no in- hibition | no in- hibition | no in- hibition |  |  |  |  | CC(C)(CNC(=O)CC(Cc1cc(F)ccc1F)NC(=O)C(C)(C)C)CNC(=O)C(O)C(COCc1ccccc1)NC(=O)C(C)(C)C (stereo not drawn) [Compound C19.016] | 49.2 | 37.9 |  |  | 
5 | 6.2 | no in- hibition | no in- hibition | no in- hibition |  |  |  |  | 10.2 | COc1ccc(COCC(NC(=O)OC(C)(C)C)C(O)C(=O)NCC(C)(C)CNC(=O)CC(Cc2cc(F)ccc2F)NC(=O)OC(C)(C)C)cc1 (stereo not drawn) [Compound C19.006] | 18.5 | 24.1 |  |  | 
6 | 30.5 | no in- hibition | no in- hibition | no in- hibition | no in- hibition |  |  |  |  | CCCC(=O)NC(CC(=O)NCC(C)(C)CNC(=O)C(O)C(COCc1ccccc1)NC(=O)CCC)Cc1cc(F)ccc1F (stereo not drawn) [Compound C19.017] | ≥ 173 | 64.6 |  |  | 
7 | 55.1 | no in- hibition | no in- hibition | no in- hibition | no in- hibition |  |  |  |  | CC(C)(C)OC(=O)NC(CCCCNC(=O)C(O)C(Cc1ccccc1)NC(=O)OC(C)(C)C)C(=O)N1CCSC1 (stereo not drawn) [Compound C21.002] | 61.6 | 49.3 |  |  | 
8 | 29.4 |  |  |  |  | 0.59 | 24.3 | 14.5 | 0.33 | CC(C)NC(CC(=O)NCC(C)(C)CNC(=O)C(O)C(N)COCc1ccccc1)Cc1cc(F)ccc1F (stereo not drawn) [Compound C19.029] | 92.7 | 34.8 |  |  | 
9 | 90.1 |  |  |  |  | 0.178 | 0.02 | 0.11 | 0.066 | NC(CCCCNC(=O)C(O)C(N)Cc1ccccc1)C(=O)N1CCSC1 (stereo not drawn) [Compound C21.001] | 65.5 | 77 |  |  | 
10 | 136 | no in- hibition | no in- hibition | no in- hibition |  |  |  |  | 0.57 | CC(=O)SC(C(=O)NCCCCC(NC(=O)OC(C)(C)C)C(=O)N1CCSC1)C(Cc1ccccc1)NC(=O)OC(C)(C)C (stereo not drawn) [Compound C22.001] | 57.1 | ≥ 200 |  |  | 
11 | 78.6 | no in- hibition | no in- hibition | no in- hibition | no in- hibition |  |  |  |  | CCCCCCCC(=O)OC(C(=O)NCC(C)(C)CNC(=O)CC(Cc1cc(F)ccc1F)NC(=O)OC(C)(C)C)C(COCc1ccc(OC)cc1)NC(=O)OC(C)(C)C (stereo not drawn) [Compound C19.007] | 56.8 | ≥ 120 |  |  | 
12 | 58.2 |  |  |  |  | 0.012 | 13.3 | 2.3 | 0.18 | NC(CNC(=O)c1cccc(NC(=O)C(O)C(N)COCc2ccccc2)c1)Cc1cc(F)ccc1F (stereo not drawn) [Compound C19.031] | ≥ 119 | 20.1 |  |  | 

Row | SMILES | IC50 (T lymphocytes (T cells); Homo sapiens, T-cell, 48 h) [µM] | meas. IC50 (APN) [1] | meas. IC50 (DP8/9) [2] | meas. IC50 (DPIV) [3] | meas. IC50 (cAAP) [4] | IC50 [1] [µM] | IC50 [2] [µM] | IC50 [3] [µM] | IC50 [4] [µM] | IC50 (SZ95 cells; Homo sapiens) [µM] | IC50 (NHEK cells; Homo sapiens, NHEK, 48 h) [µM] | IC50 (NHEK cells; 48 hours) [µM] | IC50 (T lymphocytes (T cells); PHA-stimulated human T cells, 48 hours) [µM] | IC50 (SZ95 cells) [µM]
13 | COc1ccc(COCC(NC(=O)C(C)(C)C)C(OCc2ccc(OC)cc2)C(=O)NCC(C)(C)CNC(=O)CC(Cc2cc(F)ccc2F)NC(=O)C(C)(C)C)cc1 (stereo not drawn) [Compound C19.018] | 3.3 | no in- hibition | no in- hibition | no in- hibition | no in- hibition |  |  |  |  | 9.1 | 9.9 |  |  | 
14 | CC(C)(CNC(=O)CC(Cc1cc(F)ccc1F)NC(=O)OC(C)(C)C)CNC(=O)C(O)C(COCc1ccccc1)NC(=O)OC(C)(C)C (stereo not drawn) [Compound C19.023] | 11.5 | no in- hibition | no in- hibition | No in- hibition | no in- hibition |  |  |  |  | 15.9 |  | 41 |  | 
15 | CC(C)(CNC(=O)CC(Cc1cc(F)ccc1F)NC(=O)OC(C)(C)C)CNC(=O)C(O)C(COCc1ccccc1)NC(=O)OC(C)(C)C (stereo not drawn) [Compound C19.025] |  | no in- hibition | no in- hibition | No in- hibition | no in- hibition |  |  |  |  |  |  | 17.3 | 12.3 | 15.4
